Laboratory results published in paper PMC3049581, “Development and evaluation of human AP endonuclease inhibitors in melanoma and glioma cell lines” (British Journal of Cancer, 2011).
Entries after “also recorded” stand apart in the source; their conditions may differ. Like-named read-outs stand apart in the source and are kept apart here. Blank lines part the entries; values can stand above or below the compound they belong to.

Assays:
[1] = test system: melanoma and glioma cell lines; assay: MTS assay, potentiation of cytotoxic agents (other inhibitors, data not shown); type: cell-based; details: relatively non-toxic inhibitor concentration
Description: (§1) MeWo, SKMel and MM418 melanoma cancer cell line were grown in RPMI culture medium (supplemented with penicillin 0.06 g l^−1, streptomycin 0.1 g l^−1 pH 7.0, 10% foetal bovine serum (FBS, PAA Cell Culture Company, Yeovil, Somerset, UK). U89 MG and SNB-19 glioma cell lines were grown in DMEM (supplemented with penicillin 0.06 g l^−1, streptomycin 0.1 g l^−1 pH 7.0, 10% foetal bovine serum (FBS, PAA Cell Culture Company). HUVEC endothelial cells were grown in a special media (199 Media+HAMS F12), and supplemented with 20% heat-inactivated foetal calf serum, 1% Hepes, 1% Glutamine, 12.5 μg Human EGF, 625 ng of Human bFGF, 3750 units of Heparin, penicillin 0.06 g l^−1, and streptomycin 0.1 g l^−1) Only cultures with a plating efficiency of over 70% were used for analyses.
(§2) To evaluate intrinsic cytotoxicity and to evaluate the potentiation of toxicity of cytotoxic agents by APE1 inhibitors, MTS assays were performed as per the manufacturer's recommendation (Promega, Southampton, UK). Briefly, 2000 cells per well (in 200 μl of medium) were seeded into a 96-well plate. For HUVEC cells, 5 μl of 2% type 2 gelatine (Sigma) was added to the wells and the plates were preincubated for 20 min at 37°C before seeding of cells. For intrinsic cytotoxicity assessments, cells were incubated with varying concentrations of APE1 inhibitors and the MTS assay was performed on day 5. […] Non-radioactive cell proliferation assay was conducted as described previously.

[2] = test system: melanoma and glioma cell lines; assay: MTS assay, intrinsic cytotoxicity; type: cell-based; details: 120 h, MTS assay on day 5, read-out: GI50 (cell growth inhibition)
Description: as §1, §2

[3] = target: T1, E. coli endonuclease IV (Escherichia coli, UniProt P0A6C1); assay: Fluorescence-based endonuclease IV cleavage assay (counter-screen); type: biochemical; details: tested at 100 μM
T1 construct: purchased Trevigen
Description: (§3) A fluorescence-based AP site cleavage assay was performed as described previously with slight modifications ([Madhusudan et al, 2005]). Briefly, APE1 (50 nM) (New England Biolabs) was incubated in a buffer system consisting of 50 mM Tris-HCl, pH 8.0, 1 mM MgCl2, 50 mM NaCl, 2 mM DTT at 37°C for 10 min. 5′-F-GCCCCCXGGGGACGTACGATATCCCGCTCC-3′ and its complementary Q-labelled oligonucleotide (see above) were annealed in a buffer containing 100 μM Tris-HCl, 50 mM NaCl and 1 μM EDTA. AP-site cleavage was initiated by addition of the annealed substrate (25 nM) to the reaction mix. Fluorescence readings were taken at 5 min intervals during 30 min incubation at 37°C using an Envision Multilabel reader from Perkins Elmer (Cambridge, UK) with a 495 nm excitation and a 512 nm emission filter. If the DNA is cleaved at the abasic site at position 7 from the 5′-end by APE1, the 6-mer fluorescein-containing product will dissociate from its complement by thermal melting. As a result, the quenching effect of the 3′ dabcyl (which absorbs fluorescein fluorescence when in close proximity) is lost, and APE1 activity is measured indirectly as an increase in fluorescence signal (Figure 2A). Similar assays were developed for monitoring the AP endonuclease activity of endonuclease IV using a buffering system containing 10 mM HEPES-KOH, pH 7.4, 100 mM KCl and 60 ng of endonuclease IV (Trevigen, Abingdon, UK). The final DMSO concentration was maintained at 1.2% in all assays.
(§4) APE1 was incubated with the candidate inhibitors at 100 μM (final DMSO concentration, 1.2%) before initiating the AP site cleavage assay described in the previous section. […] In addition, screening of potential inhibitors for their specificity (at 100 μM concentration) was performed using endonuclease IV cleavage assays.

[4] = target: T2, AP endonuclease activity of HeLa whole-cell extracts (WCE) (Homo sapiens, UniProt P27695); assay: Whole-cell extract AP-site cleavage assay; type: biochemical
T2 construct: incubated at 100 μM concentrations with 30 ng of HeLa WCE at room temperature; endogenous in cells; host or cells: HeLa whole-cell extract
Description: The supernatant WCE was retained, the protein concentration determined using the Bio-Rad Bradford reagent, and aliquots were stored at −80°C. AP endonuclease activity assays using 18-mer radiolabelled oligonucleotide substrates (see above) were performed. In brief, all potential APE1 inhibitors were incubated at 100 μM concentrations with 30 ng of HeLa WCE at room temperature for 15 min in incision buffer consisting of 50 mM Tris-HCl, pH 8, 1 mM MgCl2, 50 mM NaCl and 2 mM DTT. After incubation, 0.5 pmol ^32P-radiolabeled THF-containing 18-mer double-stranded DNA substrate was added. […] The radiolabeled substrate and product were separated on a standard polyacrylamide-denaturing gel and quantified by phosphorimager analysis.

[5] = target: T3, Human APE1 (Homo sapiens, UniProt P27695); assay: Fluorescence-based AP site cleavage assay; type: biochemical; details: APE1 50 nM, wild type
T3 construct: purchased New England Biolabs
Description: as §3, §4
(§5) To estimate IC50 for APE1 inhibition, the ability of the compounds to inhibit APE1 at a range of concentrations (10 nM–100 μM) were evaluated in black 384-well plates. The reactions were set up as before and fluorescence intensity was measured every 5 min for 30 min following reaction initiation. Using the initial rate values from the assay, percent activity was calculated for each sample relative to a negative DMSO only control. The data was fitted to a sigmoidal dose-response model using Graphpad Prism 3.0 (GraphPad Software, La Jolla, CA, USA) and IC50 values were determined using the formula: % Activity=100/(1+10^(log[I]−log IC 50)).

[6] = test system: melanoma cell lines; assay: MTS assay, intrinsic cytotoxicity; type: cell-based; details: 120 h, MTS day 5, read-out: GI50 (cell growth inhibition)
Description: as §1, §2

[7] = test system: glioma cell lines; assay: MTS assay, intrinsic cytotoxicity; type: cell-based; details: 120 h, MTS day 5, read-out: GI50 (cell growth inhibition)
Description: as §1, §2

[8] = test system: SK-Mel30 melanoma cell line; assay: MTS assay, potentiation of cytotoxic agents; type: cell-based; details: inhibitor 10 μM
Description: as §1, §2

[9] = test system: U89MG glioma cell line; assay: MTS assay, potentiation of cytotoxic agents; type: cell-based; details: inhibitor 10 μM
Description: as §1, §2

[10] = target: T4, D148E polymorphic variant of APE1 (Homo sapiens, UniProt P27695, D148E); assay: Fluorescence-based AP site cleavage assay, D148E polymorph; type: biochemical
T4 construct: made in house
Description: as §3
as §5, with “The data was fitted to a sigmoidal dose-response model using Graphpad Prism 3.0 (GraphPad Software, La Jolla, CA, USA) and IC50 values were determined using the formula: % Activity=100/(1+10^(log[I]−log IC 50)).” left out

[11] = test system: U89MG cells; assay: Aldehyde reactive probe assay, genomic AP sites; type: cell-based
Description: AP sites were quantified as described previously ([Madhusudan et al, 2005]). Genomic DNA was extracted from a pellet of 1 × 10^6 cells using the guanidine/detergent lysis method. Briefly, 0.5 ml of DNAzol (Helena Biosciences, Gateshead, UK) was added to the pellet and the cell lysate was gently passed several times through a pipette. The resultant viscous solution was centrifuged at 10 000 g for 10 min at 25°C. DNA was precipitated from the supernatant using 0.25 ml of 100% ethanol by gently inverting the tube 5–8 times at room temperature for 1–3 min. The DNA was washed twice in 0.4 ml of 75% ethanol. The DNA was then solubilized in TE buffer (pH 8.0), and the final concentration was adjusted to 100 μg ml^−1 (using a Gene Quant pro spectrophotometer). AP-site determinations were performed on the genomic DNA using an aldehyde reactive probe assay kit using the protocol provided by the manufacturer (BioVision Research Products, Mountainview, CA, USA). Untreated cells were compared with cells exposed to either MMS alone, APE1 inhibitor alone or combination of MMS and APE1 inhibitor. DNA was extracted at 90 min and AP site quantified as described previously. All experiments were performed in triplicate.

[12] = test system: HUVEC endothelial cells; assay: MTS assay, toxicity in non-cancer cells; type: cell-based; details: compared with SK-Mel30 and U89MG
Description: as §1
To evaluate intrinsic cytotoxicity and to evaluate the potentiation of toxicity of cytotoxic agents by APE1 inhibitors, MTS assays were performed as per the manufacturer's recommendation (Promega, Southampton, UK). Briefly, 2000 cells per well (in 200 μl of medium) were seeded into a 96-well plate. For HUVEC cells, 5 μl of 2% type 2 gelatine (Sigma) was added to the wells and the plates were preincubated for 20 min at 37°C before seeding of cells. For intrinsic cytotoxicity assessments, cells were incubated with varying concentrations of APE1 inhibitors and the MTS assay was performed on day 5. […]

[13] = target: T4, D148E polymorphic variant of APE1; assay: Radiolabelled oligonucleotide-based APE1 cleavage assay, D148E vs wild type; type: biochemical; details: data not shown
Description: This basic assay was performed as described previously ([Madhusudan et al, 2005]). Briefly, a radiolabelled uracil-containing oligonucleotide (5′-CTCGCAAGUGGGTACCGA-3′) was annealed to a complementary oligonucleotide. […] AP site cleavage reaction consisted of 50 nM APE1 and 0.75 ng reduced AP site double-stranded oligonucleotide incubated at 37°C for 1 h. The sample was resolved on a 15% TBE Criterion Pre Cast Gel (Bio-Rad, Hemel Hempstead, Herts, UK) and the radiolabelled substrate and reaction products were visualised using a phosphorImager (Molecular Dynamics, Buckinghamshire, UK).

[14] = 30 ng HeLa WCE, read-out: WCE Inhibition (whole-cell extracts AP site cleavage inhibition)

T4 sequence (P27695 whole entry D148E): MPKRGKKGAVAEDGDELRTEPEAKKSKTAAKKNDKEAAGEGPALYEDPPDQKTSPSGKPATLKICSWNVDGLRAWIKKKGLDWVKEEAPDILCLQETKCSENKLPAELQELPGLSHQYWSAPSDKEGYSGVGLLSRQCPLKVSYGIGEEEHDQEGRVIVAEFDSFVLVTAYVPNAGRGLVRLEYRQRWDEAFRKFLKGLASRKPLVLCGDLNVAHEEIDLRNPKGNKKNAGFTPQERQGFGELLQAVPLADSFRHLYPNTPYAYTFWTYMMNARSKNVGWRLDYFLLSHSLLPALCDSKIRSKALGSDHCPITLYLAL
T3 sequence (P27695 whole entry): as the sequence (P27695 whole entry D148E) above, with E148D counted along it
T2 sequence (P27695 whole entry): as the sequence (P27695 whole entry D148E) above, with E148D counted along it

Structure (SMILES): O=C(O)c1cc2cc(F)ccc2[nH]1 [Compound 1, 5-fluoro-1H-indole-2-carboxylic acid]
- potentiation of cytotoxicity of alkylating agents [1]: not
- GI50 [2]: > 300 µM
- Endo IV inhibition [3]: None
- inhibition at 100 µM [4, 14]: < 50%
- IC50 [5]: 10 µM

Structure (SMILES): O=C(COc1ccc2ccccc2c1)Nc1ccc(O)c(-c2nc3ccccc3o2)c1 [Compound 2, N-(3-benzooxazol-2-yl-4-hydroxy-phenyl)-2-(2-naphthyloxy)acetamide]
- potentiation of cytotoxicity of alkylating agents [1]: Potentiation of cytotoxicity was also demonstrated
- GI50 [2]: 50 µM
- Endo IV inhibition [3]: None
- inhibition at 100 µM [4, 14]: 50 to 75%
- IC50 [5]: 25 µM

- inhibition of AP site cleavage in WCE assay ([4]; 100 μM, HeLa WCE, listed as compound 3, 100 µM): no effect
- IC50 [5]: 3 µM
Structure (SMILES): O=C(OCC(=O)N1NC(c2ccc3ccccc3c2)=CC1c1ccccc1)c1ccc([N+](=O)[O-])s1 (stereo not drawn) [Compound 3, (3-(2-naphthyl)-5-phenyl-2,5-dihydropyrazol-1-yl) carbonylmethyl 5-nitrothiophene-2-carboxylate]
- potentiation of cytotoxicity of alkylating agents [1]: did not shown any potentiation
- GI50 [2]: 1 µM
- inhibition of AP site cleavage in WCE assay ([4]; 100 μM, HeLa WCE): no activity; also recorded: did not inhibit

Structure (SMILES): Cc1ccc(-c2nc(S(=O)(=O)c3ccccc3)c(SCC(=O)Nc3ccc(F)cc3)o2)cc1 [Compound 4, N-(4-fluorophenyl)-2-(4-phenylsulfonyl-2-(p-tolyl)oxazol-5-yl) sulfanyl-acetamide]
- GI50 [6]: 20 µM
- GI50 [7]: 17 µM
- potentiation of cytotoxicity of MMS [8]: Potentiation
- potentiation of cytotoxicity of doxorubicin [8]: did not potentiate
- potentiation of cytotoxicity of temozolomide [8]: Potentiation
- potentiation of cytotoxicity of MMS [9]: Potentiation; also recorded: significantly potentiated
- potentiation of cytotoxicity of doxorubicin [9]: did not potentiate
- potentiation of cytotoxicity of temozolomide [9]: Potentiation; also recorded: significantly potentiated
- IC50 ([10]; D148E polymorph, 50 nM protein, read-out: IC50 for APE1 inhibition, D148E protein): 5.56 µM
- reduction of IC50 for D148E protein compared with wild type ([10]; D148E vs wild type): 50.5%
- preferential inhibitory activity towards D148E compared with wild type ([10]; fluorescence or radiolabelled assays): D148E was more sensitive to inhibition
- AP site content in genomic DNA, combination with MMS ([11]; 10 μM inhibitor + MMS 600 μM, 90 min): increased AP site content
- AP site accumulation in genomic DNA, inhibitor alone ([11]; 10 μM, DNA extracted at 90 min, vs untreated cells): accumulated AP sites
- Endo IV inhibition [3]: no inhibition and None
- inhibition at 100 µM [4, 14]: > 75%
- inhibition of AP site cleavage in WCE assay ([4]; 100 μM, HeLa WCE): > 90%
- inhibition at 100 µM ([4]; HeLa WCE, read-out: inhibition of AP site cleavage in WCE assay): ~93%
- toxicity to HUVEC cells [12]: relatively nontoxic
- preferential inhibitory activity towards D148E protein, radiolabelled assay [13]: confirmed
- IC50 [5]: 11 µM

Structure (SMILES): O=C(CCCn1c(SCC(=O)Nc2nccs2)nc2ccsc2c1=O)NCc1ccc2c(c1)OCO2 [Compound 5, N-(benzo(1,3)dioxol-5-ylmethyl)-4-(2-oxo-4-(thiazol-2-ylcarbamoylmethylsulfanyl)-9-thia-3,5-diazabicyclo(4.3.0)nona-4,7,10-trien-3-yl)-butanamide]
- potentiation of cytotoxicity of alkylating agents [1]: Potentiation of cytotoxicity was also demonstrated
- GI50 [2]: 14 µM
- Endo IV inhibition [3]: None
- inhibition at 100 µM [4, 14]: 50 to 75%
- IC50 [5]: 12 µM

Structure (SMILES): O=C(CSc1nc2ccccc2s1)CSc1nc2ccccc2s1 [Compound 6, 1,3-bis(1,3-benzothiazol-2-ylthio)acetone]
- potentiation of cytotoxicity of alkylating agents [1]: Potentiation of cytotoxicity was also demonstrated
- GI50 [2]: 50 µM
- Endo IV inhibition [3]: None
- WCE Inhibition (whole-cell extracts AP site cleavage inhibition) ([4]; 100 μM, 30 ng HeLa WCE): Strong
- IC50 [5]: 3 µM

Structure (SMILES): N#CC(C(=O)c1cc2ccccc2o1)c1nc2ccccc2s1 (stereo not drawn) [Compound 7, 3-benzofuran-2-yl-2-benzothiazol-2-yl-3-oxo-propanenitrile]
- potentiation of cytotoxicity of alkylating agents [1]: did not show any potentiation
- GI50 [2]: 40 µM
- Endo IV inhibition [3]: complete inhibition and yes
- Endo IV inhibition ([3]; listed as compound 7): blocked endonuclease IV activity
- inhibition at 100 µM [4, 14]: 50 to 75%
- IC50 [5]: 2 µM
